Our source for the IC50 and Activity values is ChEMBL document CHEMBL4118037, “Lactone Derivatives Produced by a Phaeoacremonium sp., an Endophytic Fungus from Senna spectabilis” (J Nat Prod, 2017).

The subject of assay [1] is HeLa. Nature of the assay: Cytotoxicity against human HeLa cells assessed as reduction in cell viability by MTT assay. Format: functional, cell-based. (In general: Formazan colour is commonly taken as a measure of viable cells.)
In assay [2] the test system is Cladosporium cladosporioides. Nature of the assay: Antifungal activity against Cladosporium cladosporioides (Fresen) Vries SPC 140 assessed as detection limit for activity by bioautographic method. The format is functional.
Assay [3] relates to Cladosporium sphaerospermum. Nature of the assay: Antifungal activity against Cladosporium sphaerospermum (Perzig) SPC 491 assessed as detection limit for activity by bioautographic method. Format: functional.

A word on the IC50: it is the midpoint of a concentration-inhibition curve. Take `CCCCCCC[C@H]1OC2=C(C(=O)O[C@@]2(C)O)[C@@H](O)[C@]1(C)O`: the IC50 in assay [1] was over 100 µM.
As to `CCCCCCC[C@H]1OC2=C(C(=O)[C@@H](C)O2)[C@@H](O)[C@]1(C)O`, the Activity in assay [2] and in assay [3] was 5 µg in each case. Also, the IC50 in assay [1] amounted to 50 µM.
Consider `CCCCCCC[C@H]1OC2=C(C(=O)O[C@@H]2C)[C@@H](O)[C@@]1(C)O`, for which the Activity in assay [2] and in assay [3] was 25 µg throughout. Further, the 50% inhibitory concentration (IC50) in assay [1] was over 100 µM.
For the compound NYSTATIN, the Activity in assay [2] and in assay [3] was 1 µg throughout.
`CC[C@@]1(O)C(=O)OCc2c1cc1n(c2=O)Cc2cc3ccccc3nc2-1` [CAMPTOTHECIN]: the IC50 in assay [1] was 0.12 µM.
For the compound `CCCCCCC[C@H]1OC2=C(C(=O)O[C@@H]2C)[C@@H](O)[C@]1(C)O`, the Activity in assay [2] and in assay [3] was 5 µg each time. In addition, the IC50 in assay [1] turned out to be 100 µM.
